# How the values were obtained:
# Format in all cases: in vivo
# Johnsongrass (So) = experiment: Test Example 6: crop plant selectivity by upland field soil treatment (soybean), herbicidal effects; details: dose 1.6 g ai/10a, 21st day after application
# Experimental: (§1) (Test on Crop Plant Selectivity by Upland Field Soil Treatment)
# (§2) In a plastic pot (surface area: 600 cm^2) filled with sand, soybean (Gl), Diaitaria ciliaris (Di), green foxtail (Se), Johnsongrass (So), pale smartweed (Po), slender amaranth (Am), common lambsquarters (Ch) and China jute (Ab) were sown and covered with soil. […] The plants were then cultured in a green house, and the evaluation of the herbicidal effects and phytotoxicity was conducted on the 21st day after the application in accordance with the standards as identified in Table 47. Symbol—represents “not tested”.
# Diaitaria ciliaris (Di) [1] = experiment: as above; details: dose 1.6 g ai/10a, 21st day after application
# Experimental: as §1, §2
# [2] = system: common lambsquarters (Ch); experiment: as above; design: scale not given here; details: dose 1.6 g ai/10a, 21st day after application
# Procedure, shortened: (§3)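 Soybean and weed seeds were sown in sand-filled pots and covered with soil, then given a pre-emergence soil application. Plants were grown on in a greenhouse, and herbicidal effect and crop phytotoxicity were scored against a set rating scale 21 days after application.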
# pale smartweed (Po) [3] = experiment: as above; design: scale not given here; details: dose 1.6 g ai/10a, 21st day after application
# Procedure, shortened: as §3
# slender amaranth (Am) [4] = experiment: as above; design: scale not given here; details: dose 1.6 g ai/10a, 21st day after application
# Procedure, shortened: as §3
# China jute (Ab) [5] = experiment: as above; design: scale not given here; details: dose 1.6 g ai/10a, 21st day after application
# Procedure, shortened: as §3
# green foxtail (Se) [6] = experiment: as above; design: scale not given here; details: dose 1.6 g ai/10a, 21st day after application
# Procedure, shortened: as §3
# soybean (Gl) = experiment: Test Example 6: crop plant selectivity by upland field soil treatment (soybean), phytotoxicity; design: scale not given here; details: dose 1.6 g ai/10a, 21st day after application
# Procedure, shortened: as §3
# Diaitaria ciliaris (Di) [7] = experiment: Test Example 4: crop plant selectivity by upland field soil treatment (cotton), herbicidal effects; details: evaluated 21st day after application
# Experimental: as §1
# In a plastic pot (surface area: 600 cm^2) filled with sand, cotton (Go), Diaitaria ciliaris (Di), green foxtail (Se), pale smartweed (Po), slender amaranth (Am), common lambsquarters (Ch) and China jute (Ab) were sown and covered with soil. […] The plants were then cultured in a green house, and the evaluation of the herbicidal effects and phytotoxicity was conducted on the 21st day after the application in accordance with the standards as identified in Table 47. Symbol—represents “not tested”.
# rice flatsedge (Ci) [8] = experiment: Test Example 3: herbicidal effects by upland field foliage treatment; design: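 grade of growth control; 5 = at least 90%; 4 = 70 to 90%; 3 = 50 to 70%; 2 = 30 to 50%; 1 = 10 to 30%; 0 = under 10%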; details: 100 g active ingredient per 10 ares, evaluated 14th day after treatment
# Procedure, shortened: (§4)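 Weeds sown in sand-filled pots and grown 2 weeks in a greenhouse before foliage treatment. Plants then kept in the greenhouse; herbicidal effect scored on day 14 after treatment against a graded standard scale.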
# barnyardgrass (Ec) [9] = experiment: as above; design: scale not given here; details: 100 g active ingredient per 10 ares, evaluated 14th day after treatment
# Procedure, shortened: as §4
# [10] = system: common lambsquarters (Ch); experiment: as above; design: scale not given here; details: 100 g active ingredient per 10 ares, evaluated 14th day after treatment
# Procedure, shortened: as §4
# pale smartweed (Po) [11] = experiment: as above; design: scale not given here; details: 100 g active ingredient per 10 ares, evaluated 14th day after treatment
# Procedure, shortened: as §4
# slender amaranth (Am) [12] = experiment: as above; design: scale not given here; details: 100 g active ingredient per 10 ares, evaluated 14th day after treatment
# Procedure, shortened: as §4
# Diaitaria ciliaris (Di) [13] = experiment: as above; design: scale not given here; details: 100 g active ingredient per 10 ares, evaluated 14th day after treatment
# Procedure, shortened: as §4
# [14] = system: common lambsquarters (Ch); experiment: Test Example 4: crop plant selectivity by upland field soil treatment (cotton), herbicidal effects; design: scale not given here; details: evaluated 21st day after application
# Procedure, shortened: (§5)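 Cotton and weeds (incl. China jute, pale smartweed, slender amaranth) sown in sand-filled pots and covered with soil, then soil-treated. Grown in greenhouse; herbicidal effect and cotton phytotoxicity scored on day 21 after application against a rating standard.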
# pale smartweed (Po) [15] = experiment: as above; design: scale not given here; details: evaluated 21st day after application
# Procedure, shortened: as §5
# slender amaranth (Am) [16] = experiment: as above; design: scale not given here; details: evaluated 21st day after application
# Procedure, shortened: as §5
# China jute (Ab) [17] = experiment: as above; design: scale not given here; details: evaluated 21st day after application
# Procedure, shortened: as §5
# green foxtail (Se) [18] = experiment: as above; design: scale not given here; details: evaluated 21st day after application
# Procedure, shortened: as §5
# cotton (Go) = experiment: Test Example 4: crop plant selectivity by upland field soil treatment (cotton), phytotoxicity; design: scale not given here; details: evaluated 21st day after application
# Procedure, shortened: as §5
# rice flatsedge (Ci) [19] = experiment: Test Example 2: herbicidal effects by upland field soil treatment; details: 100 g of the active ingredient per 10 ares, evaluated on the 21st day after application;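 note: grade of growth control; 5 = at least 90%; 4 = 70 to 90%; 3 = 50 to 70%; 2 = 30 to 50%; 1 = 10 to 30%; 0 = under 10%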
# From the text: (§6) (Test on Herbicidal Effects by Upland Field Soil Treatment)
# barnyardgrass (Ec) [20] = experiment: as above; details: 100 g of the active ingredient per 10 ares, evaluated on the 21st day after application
# From the text: as §6
# [21] = system: common lambsquarters (Ch); experiment: as above; details: 100 g of the active ingredient per 10 ares, evaluated on the 21st day after application
# From the text: as §6
# pale smartweed (Po) [22] = experiment: as above; details: 100 g of the active ingredient per 10 ares, evaluated on the 21st day after application
# From the text: as §6
# slender amaranth (Am) [23] = experiment: as above; details: 100 g of the active ingredient per 10 ares, evaluated on the 21st day after application
# From the text: as §6
# Digitaria ciliaris (Di) = experiment: as above; details: 100 g of the active ingredient per 10 ares, evaluated on the 21st day after application;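 note: grade of growth control; 5 = at least 90%; 4 = 70 to 90%; 3 = 50 to 70%; 2 = 30 to 50%; 1 = 10 to 30%; 0 = under 10%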
# From the text: as §6
# barnyardgrass (Ec) [24] = experiment: Test Example 1: herbicidal effects by paddy field soil treatment; details: 100 g of the active ingredient per 10 ares, 21st day after the application, index 0-5 of Table 47;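 note: grade of growth control; 5 = at least 90%; 4 = 70 to 90%; 3 = 50 to 70%; 2 = 30 to 50%; 1 = 10 to 30%; 0 = under 10%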
# Procedure, shortened: (§7)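 Scoring of herbicidal effect came 21 days after application of 100 g active ingredient per 10 ares to flooded (3 cm) paddy-soil pots sown with barnyardgrass, monochoria and bulrush, kept in a greenhouse.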
# monochoria (Mo) = experiment: as above; details: 100 g of the active ingredient per 10 ares, 21st day after the application, index 0-5 of Table 47;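 note: grade of growth control; 5 = at least 90%; 4 = 70 to 90%; 3 = 50 to 70%; 2 = 30 to 50%; 1 = 10 to 30%; 0 = under 10%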
# Procedure, shortened: as §7
# bulrush (Sc) = experiment: as above; details: 100 g of the active ingredient per 10 ares, 21st day after the application, index 0-5 of Table 47
# Procedure, shortened: as §7
# wheat (Tr) = experiment: Test Example 5: crop plant selectivity by upland field soil treatment (wheat), phytotoxicity; design: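 grade of crop injury; 5 = at least 90%; 4 = 70 to 90%; 3 = 50 to 70%; 2 = 30 to 50%; 1 = 10 to 30%; 0 = under 10%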; details: dose 1.6 g ai/10a, 21st day after application
# Procedure, shortened: (§8)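 Scores are visual ratings of herbicidal effect or wheat phytotoxicity, recorded on the 21st day after soil treatment of pots sown with wheat and weeds and kept in a greenhouse.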
# [25] = system: common lambsquarters (Ch); experiment: Test Example 5: crop plant selectivity by upland field soil treatment (wheat), herbicidal effects; design: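 grade of growth control; 5 = at least 90%; 4 = 70 to 90%; 3 = 50 to 70%; 2 = 30 to 50%; 1 = 10 to 30%; 0 = under 10%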; details: dose 1.6 g ai/10a, 21st day after application
# Procedure, shortened: as §8
# pale smartweed (Po) [26] = experiment: as above; design: scale not given here; details: dose 1.6 g ai/10a, 21st day after application
# Procedure, shortened: as §8
# slender amaranth (Am) [27] = experiment: as above; design: scale not given here; details: dose 1.6 g ai/10a, 21st day after application
# Procedure, shortened: as §8
# China jute (Ab) [28] = experiment: as above; design: scale not given here; details: dose 1.6 g ai/10a, 21st day after application
# Procedure, shortened: as §8
# green foxtail (Se) [29] = experiment: as above; design: scale not given here; details: dose 1.6 g ai/10a, 21st day after application
# Procedure, shortened: as §8
# Diaitaria ciliaris (Di) [30] = experiment: as above; details: dose 1.6 g ai/10a, 21st day after application
# Experimental: as §1
# In a plastic pot (surface area: 600 cm^2) filled with sand, wheat (Tr), Diaitaria ciliaris (Di), green foxtail (Se), pale smartweed (Po), slender amaranth (Am), common lambsquarters (Ch) and China jute (Ab) were sown and covered with soil. […] The plants were then cultured in a green house, and the evaluation of the herbicidal effects and phytotoxicity was conducted on the 21st day after the application in accordance with the standards as identified in Table 47. Symbol—represents “not tested”.
smiles,measurement,setting,value
CCc1cc2c(-c3cn(C)c(C(F)(F)F)cc3=O)c(F)cc(Cl)c2o1 [Compound 9-2],Herbicidal effects So,Johnsongrass (So),5
same,Herbicidal effects Di,Diaitaria ciliaris (Di) [1],5
same,Herbicidal effects Ch,[2],5
same,Herbicidal effects Po,pale smartweed (Po) [3],5
same,Herbicidal effects Am,slender amaranth (Am) [4],5
same,Herbicidal effects Ab,China jute (Ab) [5],5
same,Herbicidal effects Se,green foxtail (Se) [6],5
same,Phytotoxicity Gl,soybean (Gl),1
same,Herbicidal effects Di,Diaitaria ciliaris (Di) [7]; dose 1.6 g ai/10 a,5
same,Herbicidal effects Di,Diaitaria ciliaris (Di) [7]; dose 6.3 g ai/10 a,5
same,Herbicidal effects Ci,rice flatsedge (Ci) [8],5
same,Herbicidal effects Ec,barnyardgrass (Ec) [9],5
same,Herbicidal effects Ch,[10],5
same,Herbicidal effects Po,pale smartweed (Po) [11],5
same,Herbicidal effects Am,slender amaranth (Am) [12],5
same,Herbicidal effects Di,Diaitaria ciliaris (Di) [13],5
same,Herbicidal effects Ch,[14]; dose 1.6 g ai/10 a,5
same,Herbicidal effects Ch,[14]; dose 6.3 g ai/10 a,5
same,Herbicidal effects Po,pale smartweed (Po) [15]; dose 1.6 g ai/10 a,5
same,Herbicidal effects Po,pale smartweed (Po) [15]; dose 6.3 g ai/10 a,5
same,Herbicidal effects Am,slender amaranth (Am) [16]; dose 1.6 g ai/10 a,5
same,Herbicidal effects Am,slender amaranth (Am) [16]; dose 6.3 g ai/10 a,5
same,Herbicidal effects Ab,China jute (Ab) [17]; dose 1.6 g ai/10 a,5
same,Herbicidal effects Ab,China jute (Ab) [17]; dose 6.3 g ai/10 a,5
same,Herbicidal effects Se,green foxtail (Se) [18]; dose 1.6 g ai/10 a,5
same,Herbicidal effects Se,green foxtail (Se) [18]; dose 6.3 g ai/10 a,5
same,Phytotoxicity Go,cotton (Go); dose 1.6 g ai/10 a,0
same,Phytotoxicity Go,cotton (Go); dose 6.3 g ai/10 a,0
same,Herbicidal effects Ci,rice flatsedge (Ci) [19],5
same,Herbicidal effects Ec,barnyardgrass (Ec) [20],5
same,Herbicidal effects Ch,[21],5
same,Herbicidal effects Po,pale smartweed (Po) [22],5
same,Herbicidal effects Am,slender amaranth (Am) [23],5
same,Herbicidal effects Di,Digitaria ciliaris (Di),5
same,Herbicidal effects Ec,barnyardgrass (Ec) [24],5
same,Herbicidal effects Mo,monochoria (Mo),5
same,Herbicidal effects Sc,bulrush (Sc),5
"Cn1c(C(F)(F)F)ccc(-c2cc3c(cc2F)OCC(=O)N3)c1=O [Compound No. 2-4, 3-(7-fluoro-2,3-dihydro-1,4-benzoxazin-3-on-6-yl)-1-methyl-6-trifluoromethyl-2(1H)-pyridone]",Phytotoxicity Tr,wheat (Tr),0
same,Herbicidal effects Ci,rice flatsedge (Ci) [8],5
same,Herbicidal effects Ec,barnyardgrass (Ec) [9],5
same,Herbicidal effects Ch,[10],5
same,Herbicidal effects Po,pale smartweed (Po) [11],5
same,Herbicidal effects Am,slender amaranth (Am) [12],5
same,Herbicidal effects Di,Diaitaria ciliaris (Di) [13],5
same,Herbicidal effects Ci,rice flatsedge (Ci) [19],5
same,Herbicidal effects Ec,barnyardgrass (Ec) [20],5
same,Herbicidal effects Ch,[21],5
same,Herbicidal effects Po,pale smartweed (Po) [22],5
same,Herbicidal effects Am,slender amaranth (Am) [23],5
same,Herbicidal effects Di,Digitaria ciliaris (Di),5
same,Herbicidal effects Ec,barnyardgrass (Ec) [24],5
same,Herbicidal effects Mo,monochoria (Mo),5
same,Herbicidal effects Sc,bulrush (Sc),5
same,Herbicidal effects Ch,[25],4
same,Herbicidal effects Po,pale smartweed (Po) [26],5
same,Herbicidal effects Am,slender amaranth (Am) [27],5
same,Herbicidal effects Ab,China jute (Ab) [28],3
same,Herbicidal effects Se,green foxtail (Se) [29],5
same,Herbicidal effects Di,Diaitaria ciliaris (Di) [30],5
